Results reported in patent publication EP4737448A1, “SARM1 ENZYME ACTIVITY INHIBITOR AND USE THEREOF” (Artivila (ShenZhen) Innovation Center, Ltd., priority 2023, dated 2025).

Columns and labels:
[1] = test system: axons of dorsal root ganglia explants; experiment: Wallerian degeneration assay of axon in mouse DRG explant culture; assay type: cell-based, C57BL/6 mice; conditions: 10 µM compound, 2 h pretreatment, 24 h post axonal transection
Method: Dorsal root ganglia were dissected from two-month-old male C57BL/6 mice and placed into a 35-mm culture dish containing ice-cold HBSS buffer. Extra tissue surrounding each dorsal ganglion was removed using a scalpel, and the ganglia were cut into 2-3 explant pieces. These explants were seeded into wells of a 96-well plate pre-coated with 100 ng/mL Matrigel (Corning), added with 100 µL of DRG medium (Neurobasal medium (Gibco) containing 2% B-27 (Gibco), 1% GlutaMAX (Gibco) and 10 ng/mL NGF (MCE)), and cultured in a 37°C incubator for one week. The medium was half- replaced on the fourth day and the experiments were counted on the eighth day.
Refer to methods reported in literatures in the related art (Gerdts J, Sasaki Y, Vohra B, Marasa J, Milbrandt J. Image-based screening identifies novel roles for IkappaB kinase and glycogen synthase kinase 3 in axonal degeneration. J Biol Chem. 2011 Aug 12;286(32):28011-8) for the definition and measurement principle of the degeneration index of axon. In the present disclosure, the measurement method is detaild below.
0.1 µL of 10 mM compound to be tested was added to 100 µL of DRG medium to prepare a new medium containing 10 µM compound to be tested. The medium in the 96-well plate was removed and replaced with the new medium containing the compound to be tested. Explant pieces of dorsal ganglia were incubated with compounds in a 37°C incubator for 2 h of pre-protection. Following this 2-hour pretreatment, axons were transcted near the explants tissue piece using a glass microelectrode. At 0 h and 24 h post axonal transection, brightfield images of axons in the same region were captured using a microscope (Olympus) with 20× objective. Axonal integrity was assessed using an in-house developed script. The results were categorized based on the degree of protection into: (A) >50% and (B) 20-50%.

SARM1 = target: T1, SARM1 (Homo sapiens, UniProt Q6SZW1); experiment: In vitro biochemical assay for inhibiting SARM1 enzymatic activity (PC6 fluorescence, NAD substrate, NMN activator); conditions: 0.05 µg/mL SARM1, 50 µM NAD, 50 µM PC6, 50 µM NMN, 10 min pre-incubation, 30 min at room temperature
T1 construct: the inventor produces full-length SARM1 for NADase activity assays and for screening; His (C); made in house; host or cells: HEK293 cells (transient transfection; digitonin lysate supernatant, not purified further)
T1 sequence (Q6SZW1 28-724): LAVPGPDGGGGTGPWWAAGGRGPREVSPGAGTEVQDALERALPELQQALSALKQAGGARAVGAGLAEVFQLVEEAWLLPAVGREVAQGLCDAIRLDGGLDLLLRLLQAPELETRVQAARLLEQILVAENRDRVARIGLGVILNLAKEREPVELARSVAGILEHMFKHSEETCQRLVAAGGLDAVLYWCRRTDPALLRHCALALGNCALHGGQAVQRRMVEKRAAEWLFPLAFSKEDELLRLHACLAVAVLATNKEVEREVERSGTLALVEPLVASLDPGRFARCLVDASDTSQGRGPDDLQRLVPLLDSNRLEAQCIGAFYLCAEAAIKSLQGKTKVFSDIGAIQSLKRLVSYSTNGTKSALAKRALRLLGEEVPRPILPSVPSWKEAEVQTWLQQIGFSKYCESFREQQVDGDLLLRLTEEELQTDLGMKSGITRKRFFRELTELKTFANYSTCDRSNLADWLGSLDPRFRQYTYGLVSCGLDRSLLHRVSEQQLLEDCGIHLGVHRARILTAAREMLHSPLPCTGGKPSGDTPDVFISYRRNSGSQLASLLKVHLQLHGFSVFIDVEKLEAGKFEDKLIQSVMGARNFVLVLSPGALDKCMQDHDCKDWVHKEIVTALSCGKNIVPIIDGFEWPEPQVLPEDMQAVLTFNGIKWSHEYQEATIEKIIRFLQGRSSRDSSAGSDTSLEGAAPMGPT
Method: Compounds to be tested were stocked at 200 µM or 10 mM (in DMSO), and further diluted to the desired compound concentration for the in vitro SARM1 enzyme assay and inhibitor screening.
The gene sequence encoding SARM1 protein was amplified by PCR and the PCR amplification product was constructed into the pcDNA3.1-HIS-C plasmid. This construction was completed by YouBio Biological Technology (Hunan, China).
HEK293 cells were cultured in DMEM in a 10 cm dish. The next day, cells were transfected with 15 µg of the pcDNA3.1-SARM1-HIS-C expression plasmid.
Cells were harvested 48 hours after the transfection. The SARM1 protein expressed in cells was obtained through cell lysis by digitonin, which was used for in vitro activity assay. The specific process was as follows:
Cells were digested and detached from the dish using trypsin-EDTA, centrifuged at 1000 rpm for 5 minutes, washed once with PBS, then resuspended in PBS containing 100 µM digitonin at 0.6 mL PBS for the cells in 10 cm dish and lysed for 5 min. The cells were added with trypan blue and observed under a microscope. More than 90% of the cells were confirmed to be lysed. The cells were centrifuged at 5000 rpm for 10 min, and the supernatant containing SARM1 protein was collected.
The compound was added into a solution of 50 mM Tris-HCl (pH 7.5) containing 0.05 µg/mL SARM1 to achieve a concentration of 200 µM, and then serially diluted 6 times, where each dilution was carried out by taking half of the previous solution and adding an equal volume of 50 mM Tris-HCl (pH 7.5) containing 0.05 µg/mL SARM1, yielding a set of final concentrations of the compound of either 200, 100, 50, 25, 12.5, 6.25 and 3.125 µM, or 200, 50, 12.5, 3.125, 0.78, 0.195 and 0.049 µM. No inhibitor was added in the control group. All mixtures were incubated at room temperature for 10 min.
Subsequently, 50 µM NAD, 50 µM PC6 as substrate and 50 µM NMN as activator were added to the SARM1 protein incubated with the inhibitor and reacted for 30 min at room temperature. Wherein, the aforementioned concentrations of each component represent their respective final concentrations in the reaction system
During the reaction, the fluorescence spectrum dynamics of PC6 was detected by a microplate reader, with excitation and emission wavelengths set at 390 nm and 520 nm, respectively. The activity of the protein was expressed as the reaction rate and half maximal inhibitory concentration was calculated. The higher the reaction rate, the stronger the protein activity, and the lower the inhibitory efficiency of the compound.
Dose-response curves for inhibition of SARM1 enzymatic activity for NAD by the compounds were plotted using the above method.

IC50 (SARM1) [nM] | SMILES | Degree of protection against axonal Wallerian Degeneration [1]
< 1000 | O=C1N(Cc2ccc(Cl)cc2)CCN1c1ccc(-c2ccncc2)nn1 [Compound 59, 1-(4-chlorobenzyl)-3-(6-(pyridin-4-yl)pyridazin-3-yl)imidazolidin-2-one] | B ((B) 20-50%)
< 1000 | O=C1C(Cc2ccc(C(F)(F)F)cc2)CCN1c1ccc(-c2ccncc2)nn1 (centres unmarked) [Compound 60] | B ((B) 20-50%)
< 1000 | O=C1C(Cc2ccc(Cl)c(F)c2)CCN1c1ccc(-c2ccncc2)nn1 (centres unmarked) [Compound 62] | B ((B) 20-50%)
< 1000 | O=C1C(Cc2ccc(Cl)nc2)CCN1c1ccc(-c2ccncc2)nn1 (centres unmarked) [Compound 64] | A ((A) >50%)
< 1000 | O=C1C(Cc2ccccc2)CCN1c1ccc(-c2ccncc2)nn1 (centres unmarked) [Compound 65] | B ((B) 20-50%)
< 1000 | O=C1C(Cc2ccc(Cl)s2)CCN1c1ccc(-c2ccncc2)nn1 (centres unmarked) [Compound 66] | A ((A) >50%)
< 1000 | O=C1C(Cc2ccc(F)c(F)c2)CCN1c1ccc(-c2ccncc2)nn1 (centres unmarked) [Compound 67] | A ((A) >50%)
< 1000 | O=C1C(Cc2ccc(Cl)cc2F)CCN1c1ccc(-c2ccncc2)nn1 (centres unmarked) [Compound 69] | B ((B) 20-50%)
< 1000 | O=C1C(Cc2ccc(F)cc2F)CCN1c1ccc(-c2ccncc2)nn1 (centres unmarked) [Compound 70] | B ((B) 20-50%)
< 1000 | O=C1C(Cc2cc(F)c(F)c(F)c2)CCN1c1ccc(-c2ccncc2)nn1 (centres unmarked) [Compound 71] | A ((A) >50%)
< 1000 | O=C1C(Cc2cc(F)c(F)c(F)c2)CCN1c1ccc(-c2ccncc2)cc1 (centres unmarked) [Compound 72] | A ((A) >50%)
< 1000 | O=C1C(Cc2ccc(Cl)cc2)CCN1c1ccc(-c2ccncc2F)nn1 (centres unmarked) [Compound 75, 3-(4-chlorobenzyl)-1-(6-(3-fluoropyridin-4-yl)pyridazin-3-yl)pyrrolidin-2-one] | A ((A) >50%)
< 1000 | O=C1C(Cc2ccc(Cl)cc2)CCN1c1ccc(-c2ccncc2Cl)nn1 (centres unmarked) [Compound 76, 3-(4-chlorobenzyl)-1-(6-(3-chloropyridin-4-yl)pyridazin-3-yl)pyrrolidin-2-one] | B ((B) 20-50%)
1000 to 10000 | [2H]C(c1ccc(Cl)cc1)C1([2H])CCN(c2ccc(-c3ccncc3)cc2)C1=O (centres unmarked) [Compound 80, 3-((4-chlorophenyl)methyl-deutero)-1-(4-(pyridin-4-yl)phenyl)-3-deutero-pyrrolidin-2-one] | B ((B) 20-50%)
< 1000 | [2H]C1(Cc2ccc(F)c(F)c2)CCN(c2ccc(-c3ccncc3)cc2)C1=O (centres unmarked) [Compound 83, 3-(3,4-difluorobenzyl)-1-(4-(pyridin-4-yl)phenyl)-3-deutero-pyrrolidin-2-one] | A ((A) >50%)
1000 to 10000 | O=C1N(c2ccc(-c3ccncc3)cc2)CCC1(O)Cc1ccc(F)c(F)c1 (centres unmarked) [Compound 84, 3-(3,4-difluorobenzyl)-3-hydroxy-1-(4-(pyridin-4-yl)phenyl)pyrrolidin-2-one] | B ((B) 20-50%)
